# Laboratory results as given in US4254285A, “1-Hydroxymethyl-1-1-oxo prostane derivatives of the E and F series” (American Cyanamid Company, priority 1979, dated 1981).
# How the values were obtained:
# Assay type in all cases: in vivo
# [1] = test system: gastric acid secretion; assay: Gastric Acid Secretion in the Dog Fistula; conditions: 10 μg/kg I.G.; for cumulative two-hour gastric secretion, acid: n = 6, control 17.2 ± 1.6; for cumulative two-hour gastric secretion, volume: n = 6, control 130 ± 11
# Protocol: Three mongrel dogs (20-32 kg) were surgically prepared with stainless steel cannulae. These were inserted into the most dependent portion of the ventral stomach and exteriorized through the abdomen for the collection of gastric secretions. The dogs were trained to stand quietly in a Pavlov support and were conscious during subsequent secretory studies.
# ^a After a 26hour fast, gastric acid secretion was submaximally
# stimulated, beginning 45 minutes after treatment, using a constant
# intravenous infusion of histamine acid phosphate ([…]).
# ^b Each of three dogs was treated six to seven times with vehicle
# (control) and one to three times with each compound; n is the number of
# experiments conducted with each treatment.
# ^c Total secretion from 45-120 minutes following intragastric (I.G.)
# administration of drugs or vehicle. Mean effects of treatment were
# compared to control means by Student's t test. Compound A is […]
# [2] = test system: stress-induced (immersion) ulcers; assay: Restraint--Immersion Stress Ulcers in the Rat (Wilson)
# Protocol: Male "Sprague--Dawley Derived" rats (Locke--Erickson Laboratories, Maywood, Illinois) weighing 150 to 200 g, are fasted, and provided drinking water for 16 to 19 hours prior to the start of the study. At 0 time the rats are dosed orally with compound or vehicle, (approximately 0.5 ml) and then secured in a Bollman-type restraining cage. Five minutes after dosing, the animals are immersed (tail downward) to "shoulder level" into a 22° C. water bath for 100 minutes. At the end of this period, the animals are decapitated and their stomachs promptly excised with about 5 mm each of esophagus and duodenum.
# With a blunt tipped scissor the stomach is opened along the greater curvature, starting at the tip of the rumen through the glandular mucosa into the pylorus and opening the bit of duodenum along its amesenteric border. Debris is removed from stomach by rinsing in saline at room temperature and gently blotting it with gauze or filter paper. The stomach is then spread out, mucosal surface upward on a 3×5 file card or similar material.
# With an illuminated magnifier the lesions are counted (for total lesion count) and scored (for weighted score) after the method described by G. Osterloh, et al., Arzneimittel-Forschung, 16 (8a):901910, August 1966. The score for each lesion is given in the following table, modified from the paper.
# Very large (area) non-perforating lesions are frequently seen. These are measured as so many 3 mm diameter ulcers and scored as multiples of #7.
# Rats were dosed by gavage with compound or vehicle and submerged into a
# 22° C. water bath for 100 minutes. At the end of this period,
# animals were sacrificed and their stomachs removed and scored for ulcers.
# [3] = test system: bronchospasms elicited by 5-hydroxytryptamine; assay: Bronchodilator Activity (Konzett Assay), 5-hydroxytryptamine; conditions: Cavia porcellus; guinea pig, intravenous, spasmogen 5-hydroxytryptamine, three logarithmic cumulative doses; read-out: ED50
# Protocol: (§1) The bronchodilator activity of some of the PGE compounds of this invention is determined in guinea pigs against bronchospasms elicited by intravenous injections of 5-hydroxytryptamine, histamine or acetylcholine by the Konzett procedure. [See J. Lulling, P. Lievens, F. El Sayed and J. Prignot, Arzneimittel-Forschung, 18, 995 (1968)].
# (§2) In the Table B which follows, bronchodilator activity for representative compounds of this invention against one or more of the three spasmogenic agents is expressed as an ED50 determined from the results obtained with three logarithmic cumulative intravenous doses.
# [4] = test system: bronchospasms elicited by histamine; assay: Bronchodilator Activity (Konzett Assay), histamine; conditions: Cavia porcellus; guinea pig, intravenous, spasmogen histamine, three logarithmic cumulative doses; read-out: ED50
# Protocol: as §1, §2
# [5] = test system: continuous respiratory spasm induced by pilocarpine; assay: Bronchodilator Activity (Pilocarpine Assay); conditions: Canis lupus familiaris, inhaled or nasal, dog, aerosol, 3.2 mg/ml
# Protocol: The PGE compounds of this invention also have bronchodilator activity as determined in a test using dogs anesthetized, artificially ventilated and submitted to a continuous respiratory spasm induced by pilocarpine. Mongrel dogs of either sex weighing between 5 and 10 kg are used. They are premedicated with morphine HCl by subcutaneous injection at 1.5 mg/Kg. An intravenous perfusion of 5% (W/V) chloralose is started 1/2 hour after the morphine injection in such a way that 60 mg/Kg are administered within 15 minutes. After completion, a continuous perfusion of 10 mg/Kg hour is maintained throughout the experiment. The dogs are artificially ventilated by means of a Starling pump at a rate of 20 breaths/minute. The volume is adjusted according to the weight of the animal. [Kleinman and Radford, J. Appl. Physiol., 19, 360 (1964)]. All the measurements are made with the dogs positioned supine in a heated, V-shaped table. Curarization is obtained by succinylcholine chloride using a starting injection of 3 mg/Kg lasting 3 minutes, followed by a continuous perfusion of 0.1 mg/Kg/minute. The respiratory spasm is induced by a starting injection of 400 mcg/Kg of pilocarpine HCl lasting 5 minutes. An increase or decrease in the dose of pilocarpine HCl may occur as a function of the observed effect on airway's resistance. A 15 minute delay is observed before the start of a continuous perfusion of pilocarpine HCl at a dose of 4 mcg/Kg/minute to maintain a constant spasm during the test. A metallic cannula is inserted and fixed, after tracheotomy, into the upper part of the trachea. The two cephalic veins and the two femoral veins are catheterized to inject the various agents. The femoral artery is catheterized to measure the systemic blood pressure. An esophageal balloon (11 cm×2.5 cm) is inserted into the lower third of the oesophagus to measure the endothoracic pressure. The measurement of air flow is made with a […] pneumotachograph connected to the tracheal tube. The transpulmonary pressure is measured as follows: The tracheal cannula is equipped with a stainless steel axial tube (1.5 mm) which is closed at its distal end and projected 2.5 cm beyond the end of the cannula. Three holes with a diameter of one mm are pierced on this latter segment. This tube, which is used to measure the tracheal pressure, is connected to one of the two chambers of a Sanborn 267 B/C differential transducer. The other chamber is connected to the esophageal balloon by means of a polyethylene catheter of the same length and characteristics as the balloon's. The airway's resistance, expressed in cm of water/liter/second, is measured by subtracting from the electrical equivalent of the transpulmonary pressure, a voltage proportional to the flow so as to synchronize the pressure and volume signals on the oscilloscope [Mead and Whittenberger, J. Appl. Physiol, 5, 779 (1953)]. The test compounds are administered by an Aerosol® route. The micronebulizer of a Bird Mark 7 respirator is fitted on the metallic cannula just after the pneumotachograph. The "puff" of the test compound, in Aerosol® is driven by a 2 Kg/cm^2 pressure, allowed into the micronebulizer just during one inspiration cycle. The micronebulizer is fitted on the respiratory tube only during the "puff". It is weighed just before and just after administration to determine the amount of test compound administered.
# [6] = test system: bronchospasms elicited by acetylcholine; assay: Bronchodilator Activity (Konzett Assay), acetylcholine; conditions: Cavia porcellus; guinea pig, intravenous, spasmogen acetylcholine, three logarithmic cumulative doses; read-out: ED50
# Protocol: as §1, §2
# [7] = 5 min, 5 min. after drug administration
# [8] = 0.5 h, 30 min. after drug administration
# [9] = 1 h, 60 min. after drug administration
SMILES,"cumulative two-hour gastric secretion, acid [1]","cumulative two-hour gastric secretion, volume [1]",% Reduction of ulcer score ([2]; 3 mg/Kg P.O.),% Reduction of ulcer score ([2]; 16 mg/Kg P.O.),% Reduction of ulcer score ([2]; 80 mg/Kg P.O.),% Reduction of ulcer score ([2]; 200 mg/Kg P.O.),% Reduction of ulcer score ([2]; 500 mg/Kg P.O.),ED50 [3],ED50 [4],"inhibition at 3200 µg/mL [5, 7]","inhibition at 3200 µg/mL [5, 8]","inhibition at 3200 µg/mL [5, 9]",ED50 [6]
CCCCC(C)(O)CC=CC1C(O)CC(=O)C1CCCCCCC(=O)CO (centres unmarked),6.9 ± 2.8 mEq H^+,59 ± 19 mL,62%,85%,82%,67%,82%,3 µg/kg,0.943 µg/kg,90%,70%,45%,4.7 µg/kg
"CCCCC(C)(O)CC=CC1C(O)CC(=O)C1CC=CCCCC(=O)CO (stereo not drawn) [1,9-dioxo-11α,16-dihydroxy-16-methyl-1-hydroxymethyl-5-cis-13-trans-prostadiene]",7.5 ± 2.1 mEq H^+,76 ± 16 mL,,,,85%,95%,3.81 µg/kg,3 µg/kg,90%,90%,70%,6.4 µg/kg
